Assay results taken from PubChem BioAssay (NCI).
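These data come from cells grown in 96-well plates and exposed to compound for 48 hours at five concentrations. TGI: concentration producing complete growth inhibition.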

Columns and labels:
Assay in all cases: NCI anticancer screen, dose series, 48 h
OVCAR-5 ovarian = system: OVCAR-5 ovarian
BT-549 breast = system: BT-549 breast
COLO 205 colon = system: COLO 205 colon
HS 578T breast = system: HS 578T breast
NCI-H23 lung = system: NCI-H23 lung
MDA-MB-231 breast = system: MDA-MB-231 breast
T-47D breast = system: T-47D breast
CCRF-CEM leukemia = system: CCRF-CEM leukemia
K-562 leukemia = system: K-562 leukemia
SR leukemia = system: SR leukemia
MALME-3M melanoma = system: MALME-3M melanoma
SNB-75 CNS = system: SNB-75 CNS
HOP-92 NSCLC = system: HOP-92 NSCLC
PC-3 prostate = system: PC-3 prostate
SF-295 CNS = system: SF-295 CNS
RXF 393 renal = system: RXF 393 renal
SF-268 CNS = system: SF-268 CNS
OVCAR-8 ovarian = system: OVCAR-8 ovarian
NCI/ADR-RES ovarian = system: NCI/ADR-RES ovarian
SK-MEL-2 melanoma = system: SK-MEL-2 melanoma
RPMI-8226 leukemia = system: RPMI-8226 leukemia
HCT-15 colon = system: HCT-15 colon
HOP-62 NSCLC = system: HOP-62 NSCLC
UO-31 renal = system: UO-31 renal
M14 melanoma = system: M14 melanoma
DU-145 prostate = system: DU-145 prostate
MOLT-4 leukemia = system: MOLT-4 leukemia
SK-MEL-5 melanoma = system: SK-MEL-5 melanoma
HL-60(TB) leukemia = system: HL-60(TB) leukemia
NCI-H226 lung = system: NCI-H226 lung
IGROV1 ovarian = system: IGROV1 ovarian
TK-10 renal = system: TK-10 renal
ACHN renal = system: ACHN renal
OVCAR-3 ovarian = system: OVCAR-3 ovarian
MDA-N = system: MDA-N
MDA-MB-435 = system: MDA-MB-435
SK-OV-3 ovarian = system: SK-OV-3 ovarian
A498 renal = system: A498 renal
A549 NSCLC = system: A549 NSCLC
LOX IMVI melanoma = system: LOX IMVI melanoma
HT29 colon = system: HT29 colon
UACC-62 melanoma = system: UACC-62 melanoma
UACC-257 melanoma = system: UACC-257 melanoma
OVCAR-4 ovarian = system: OVCAR-4 ovarian
786-0 renal = system: 786-0 renal
SN12C renal = system: SN12C renal
NCI-H522 lung = system: NCI-H522 lung
SF-539 CNS = system: SF-539 CNS
SK-MEL-28 melanoma = system: SK-MEL-28 melanoma
SW-620 colon = system: SW-620 colon
U251 CNS = system: U251 CNS
CAKI-1 renal = system: CAKI-1 renal
MCF7 breast = system: MCF7 breast
HCT-116 colon = system: HCT-116 colon
NCI-H460 lung = system: NCI-H460 lung
KM12 colon = system: KM12 colon
SNB-19 CNS = system: SNB-19 CNS
EKVX NSCLC = system: EKVX NSCLC
HCC-2998 colon = system: HCC-2998 colon

Measured: TGI

Cc1nc2cc([N+](=O)[O-])ccc2c(NCCCN(C)C)c1C
11 µM: MCF7 breast
22.4 µM: HCT-116 colon
15.4 µM: NCI-H23 lung
30 µM: SF-539 CNS
30.5 µM: A498 renal
21.7 µM: SK-MEL-5 melanoma
39.9 µM: NCI/ADR-RES ovarian
30.9 µM: 786-0 renal
24.3 µM: PC-3 prostate
18.9 µM: MALME-3M melanoma
26.6 µM: KM12 colon
8.09 µM: HOP-92 NSCLC
35.1 µM: OVCAR-8 ovarian
26.1 µM: BT-549 breast
63.5 µM: U251 CNS
36 µM: LOX IMVI melanoma
55.6 µM: CAKI-1 renal
11.9 µM: IGROV1 ovarian
29.4 µM: MOLT-4 leukemia
18.6 µM: UACC-257 melanoma
8.55 µM: COLO 205 colon
10.9 µM: HT29 colon
67 µM: TK-10 renal
33.9 µM: UACC-62 melanoma
32.2 µM: A549 NSCLC
28.2 µM: HOP-62 NSCLC | MDA-N
11.1 µM: OVCAR-4 ovarian
38.3 µM: OVCAR-5 ovarian
76.7 µM: ACHN renal
33.7 µM: OVCAR-3 ovarian
26.7 µM: M14 melanoma
68.9 µM: DU-145 prostate
22.7 µM: SK-MEL-2 melanoma
31.3 µM: HCT-15 colon
27.6 µM: RXF 393 renal
25.9 µM: NCI-H226 lung
75.7 µM: HS 578T breast
34.5 µM: SN12C renal
48.4 µM: SF-295 CNS
29 µM: T-47D breast
24.7 µM: SW-620 colon
13.5 µM: NCI-H460 lung
14.2 µM: MDA-MB-231 breast
32.1 µM: UO-31 renal
10.7 µM: NCI-H522 lung
31.1 µM: MDA-MB-435
not listed: SNB-19 CNS | EKVX NSCLC | HCC-2998 colon
> 100 µM: all other assays above

NC1(C(=O)O)CCCC1C(=O)O (stereo not drawn)
not listed: NCI-H226 lung | HCC-2998 colon
> 100 µM: all other assays above

Cc1c2ccccc2cc2nc3ccccc3n12
not listed: UO-31 renal | A498 renal | LOX IMVI melanoma
> 10 µM: all other assays above

CC(C)CC(C(N)=O)C(=O)NC(Cc1ccccc1)NC(=O)CNC(=O)C(C)NC(=O)C(N)Cc1ccc(O)cc1 (stereo not drawn)
not listed: HOP-92 NSCLC | A498 renal
> 100 µM: all other assays above

COc1cc(/C=N\O)cc(/C=N/O)c1O
90.2 µM: SR leukemia
90.9 µM: SK-OV-3 ovarian
81.9 µM: ACHN renal
76.5 µM: SF-295 CNS
25.1 µM: CCRF-CEM leukemia
49.2 µM: COLO 205 colon
51.4 µM: HS 578T breast
62.7 µM: SK-MEL-2 melanoma
54.7 µM: M14 melanoma
79.5 µM: HOP-92 NSCLC
77 µM: MOLT-4 leukemia
66.3 µM: SF-539 CNS
97.6 µM: MALME-3M melanoma
32.4 µM: RPMI-8226 leukemia
60.3 µM: RXF 393 renal
63.8 µM: NCI-H226 lung
not listed: 786-0 renal | HCC-2998 colon
> 100 µM: all other assays above
